Results taken from patent publication US20250205264A1, “METHODS OF USING AVERMECTIN COMPOSITIONS FOR THE TREATMENT OF SPASTICITY AND DOSING REGIMENS” (priority 2022, published 2025).

System: pentylenetetrazol (PTZ)-induced ictal brain activity
Assay: Modulation of PTZ-induced seizures, BOLD fMRI
Assay type: in vivo, male Wistar rats
Conditions: for PTZ-induced brain activity: positive control compounds, all tested brain regions, high statistical significance
Description: Functional MRI (fMRI) was performed using a high-field preclinical MRI system in anesthetized male Wistar rats in order to determine the modulation of pentylenetetrazol (PTZ)-induced ictal brain activity by chronic treatment with test compound (TC). […] Vehicle and 3 mg/kg Alprazolam served as controls (see, Table 11) Seizures were induced with PTZ in each experimental group. A schematic of the study design can be seen in FIG. 6. Various physiological parameters were also measured throughout the experiment including body weight, CO2 levels, blood pH, and heart rate. […] Vehicle and 3 mg/kg Alprazolam served as controls (see, Table 12).

| Structure (SMILES) | Statistical significances of BOLD fMRI AUC, Vehicle vs. Alprazolam (brain regions) (FIG. 7A, 3 mg/kg+PTZ, two-way ANOVA) | PTZ-induced brain activity |
| --- | --- | --- |
| Cc1nnc2n1-c1ccc(Cl)cc1C(c1ccccc1)=NC2 [Alprazolam] | in all | effectively cancelled PTZ-induced brain activity |
| CN1C(=O)CN=C(c2ccccc2)c2cc(Cl)ccc21 [Diazepam] | – | effectively cancelled PTZ-induced brain activity |
